The test addresses PIK3CG (human) (UniProt P48736). Nature of the test: Inhibition of PIK3CG Kinase Assay.

Experimental findings from the Kinase Knowledgebase extract (Sharma et al. 2016) are described below.

Molecules are shown by their SMILES. pIC50: −log10 of the molar value.

PIK3CG (human), sequence (P48736 whole entry, looked up): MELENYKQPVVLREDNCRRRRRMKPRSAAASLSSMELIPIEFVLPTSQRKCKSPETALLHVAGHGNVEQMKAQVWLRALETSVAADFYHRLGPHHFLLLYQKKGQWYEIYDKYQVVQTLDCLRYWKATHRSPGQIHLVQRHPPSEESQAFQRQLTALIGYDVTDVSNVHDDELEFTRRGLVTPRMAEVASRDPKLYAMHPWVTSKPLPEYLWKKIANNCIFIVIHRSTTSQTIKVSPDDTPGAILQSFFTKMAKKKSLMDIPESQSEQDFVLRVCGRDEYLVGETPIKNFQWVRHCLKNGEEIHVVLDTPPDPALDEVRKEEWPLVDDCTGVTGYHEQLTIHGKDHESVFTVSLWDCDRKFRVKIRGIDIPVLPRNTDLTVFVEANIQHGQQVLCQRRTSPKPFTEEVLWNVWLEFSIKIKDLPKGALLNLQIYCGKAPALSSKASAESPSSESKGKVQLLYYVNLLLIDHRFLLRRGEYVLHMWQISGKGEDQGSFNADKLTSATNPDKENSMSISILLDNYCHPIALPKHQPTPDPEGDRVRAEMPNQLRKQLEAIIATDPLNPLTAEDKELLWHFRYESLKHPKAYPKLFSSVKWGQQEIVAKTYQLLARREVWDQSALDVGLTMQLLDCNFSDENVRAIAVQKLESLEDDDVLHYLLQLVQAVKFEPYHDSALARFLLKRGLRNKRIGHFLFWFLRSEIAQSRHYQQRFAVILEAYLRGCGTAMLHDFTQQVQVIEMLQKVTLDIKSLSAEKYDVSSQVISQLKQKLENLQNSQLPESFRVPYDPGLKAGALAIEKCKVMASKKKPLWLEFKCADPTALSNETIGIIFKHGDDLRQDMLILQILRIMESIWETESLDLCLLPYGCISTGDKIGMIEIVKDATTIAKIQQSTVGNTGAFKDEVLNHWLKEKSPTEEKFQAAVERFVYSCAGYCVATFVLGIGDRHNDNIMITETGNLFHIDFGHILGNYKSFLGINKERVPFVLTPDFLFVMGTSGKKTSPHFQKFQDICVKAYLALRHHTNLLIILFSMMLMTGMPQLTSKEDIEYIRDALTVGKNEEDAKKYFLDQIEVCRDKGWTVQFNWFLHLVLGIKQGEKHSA

`Cc1nc(N)ccc1C(=O)NC1=Nc2ccccc2C2=NCCN12`: the pIC50 (usually −log10 of the IC50, conventionally taken in molar units) was 6.30 to 7.00.
With `O/C(=C\C1=Nc2cc(CN3CCOCC3)ccc2C2=NCCN12)c1cccnc1` the figure was 6.30 to 7.00; with `Cc1ncccc1C(=O)NC1=Nc2ccccc2C2=NCCN12`, at least 7.00; with `COc1cccc2c1N=C(NC(=O)c1cccnc1Cl)N1CCN=C21`, at least 7.00.
With `COc1cc2c(c(OC)c1C)N=C(/C=C(\O)c1cccnc1)N1CCN=C21` the figure was at least 7.00; with `O=C(NC1=Nc2ccccc2C2=NCCN12)c1csc([N+](=O)[O-])c1`, under 5.70; with `O/C(=C\C1=Nc2ccc(Cl)cc2C2=NCCN12)c1cccnc1`, 6.30 to 7.00.
With `O=C(NC1=Nc2ccccc2C2=NCCN12)c1csc(-c2ccncc2)n1` the figure was under 5.70.
On to `COc1cncc(C(=O)NC2=Nc3ccccc3C3=NCCN23)c1`, for which the pIC50 is 6.30 to 7.00.
As to `COc1cccc2c1N=C(NC(=O)c1cccnc1)N1CCN=C21`, the pIC50 is at least 7.00.
Take `O=C(NC1=Nc2ccccc2C2=NCCN12)c1cncc(O)c1`: the pIC50 was at least 7.00.
With `COc1cc2c(c(OC)c1C)N=C(NC(=O)c1ccc3[nH]cnc3c1)N1CCN=C21` the figure was 6.30 to 7.00; with `O=C(NC1=Nc2ccccc2C2=NCCN12)c1ccncc1`, 5.70 to 6.30.
Regarding `Cc1cc(C(=O)NC2=Nc3ccccc3C3=NCCN23)cnc1N`, the pIC50 is 6.30 to 7.00.
With `COc1ccc2c(c1)N=C(NC(=O)c1ccc(N)nc1)N1CCN=C21` the figure was at least 7.00; with `COc1cc2c(cc1OC)C1=NCCN1C(NC(=O)c1ccc3[nH]cnc3c1)=N2`, at least 7.00.
With `O=C(NC1=Nc2cc(Cl)ccc2C2=NCCN12)c1cccnc1` the figure was 6.30 to 7.00.
Compound `CCn1nc(C)cc1C(=O)NC1=Nc2ccccc2C2=NCCN12` had a pIC50 of 6.30 to 7.00.
With `Cc1cc(C(=O)NC2=Nc3ccccc3C3=NCCN23)cc(C)c1[N+](=O)[O-]` the figure was under 5.70; with `COc1c(C)cc(C(=O)NC2=Nc3ccccc3C3=NCCN23)cc1C`, under 5.70; with `COc1ccc2c(c1OC)N=C(/C=C(\O)c1cccnc1)N1CCN=C21`, at least 7.00.
With `O=C(NC1=Nc2ccc(Cl)cc2C2=NCCN12)c1cccnc1` the figure was at least 7.00; with `COc1cc2c(cc1OC)C1=NCCN1C(/C=C(\O)c1sc(C)nc1C)=N2`, at least 7.00; with `O=C(NC1=Nc2ccccc2C2=NCCN12)c1ccccn1`, 5.70 to 6.30.
With `O=C(NC1=Nc2ccccc2C2=NCCN12)c1ccc(-n2cccn2)cc1` the figure was under 5.70; with `CC(=O)Nc1ccc(C(=O)NC2=Nc3ccccc3C3=NCCN23)cn1`, at least 7.00; with `O/C(=C\C1=Nc2c(cccc2C(F)(F)F)C2=NCCN12)c1cccnc1`, 6.30 to 7.00.
As for `O=C(NC1=Nc2cc(OCCOCCO)ccc2C2=NCCN12)c1cccnc1`, the negative logarithm of the IC50 (pIC50) is 6.30 to 7.00.
`NS(=O)(=O)c1ccc(C(=O)NC2=Nc3ccccc3C3=NCCN23)c(Cl)c1` had a pIC50 of under 5.70.
With `COc1c(OCC(=O)N(C)C)ccc2c1N=C(/C=C(\O)c1cccnc1)N1CCN=C21` the figure was at least 7.00.
With `COc1cc(OC)c2c(c1)C1=NCCN1C(NC(=O)c1ccc3[nH]cnc3c1)=N2` the figure was at least 7.00; with `CC(=O)NC1CCN(c2ccc3c(c2)N=C(/C=C(\O)c2cccnc2)N2CCN=C32)C1` (stereo not drawn), at least 7.00; with `O=C(NC1=Nc2c(F)cccc2C2=NCCN12)c1ccc2[nH]cnc2c1`, at least 7.00.
With `O/C(=C\C1=Nc2cc(N3CCOCC3)ccc2C2=NCCN12)c1cccnc1` the figure was 6.30 to 7.00; with `COc1c(C)ccc2c1N=C(/C=C(\O)c1ccc(NC(C)=O)nc1)N1CCN=C21`, at least 7.00; with `O/C(=C\C1=Nc2cc(N3CCOCC3)ccc2C2=NCCN12)c1ccc2[nH]cnc2c1`, at least 7.00.
In turn, `O=C(NC1=Nc2cc(OCC(=O)N3CCOCC3)ccc2C2=NCCN12)c1cccnc1` had a pIC50 of 6.30 to 7.00.
`O/C(=C\C1=Nc2ccccc2C2=NCCN12)c1cnccn1` showed a pIC50 of 6.30 to 7.00.
Compound `COc1c(OCCO)ccc2c1N=C(/C=C(\O)c1cccnc1)N1CCN=C21` had a pIC50 of at least 7.00.
With `O/C(=C\C1=Nc2ccccc2C2=NCCN12)c1ccno1` the figure was 6.30 to 7.00.
With `Cc1cccc2c1N=C(NC(=O)c1ccc3[nH]cnc3c1)N1CCN=C21` the figure was at least 7.00.
With `Cc1ccc2c(c1)N=C(NC(=O)c1cccs1)N1CCN=C21` the figure was 6.30 to 7.00.
The compound `O=C(NC1=Nc2ccc(Br)cc2C2=NCCN12)c1cccnc1` showed a pIC50 of 6.30 to 7.00.
With `O=C(NC1=Nc2ccccc2C2=NCCN12)c1ccc(-n2ccnc2)cc1` the figure was under 5.70; with `COc1c(OCC(N)=O)ccc2c1N=C(/C=C(\O)c1cccnc1)N1CCN=C21`, at least 7.00.
On to `COc1cc2c(c(OC)c1C)N=C(NC(=O)c1cccnc1C)N1CCN=C21`, for which the pIC50 was at least 7.00.
With `O=C(NC1=Nc2ccccc2C2=NCCN12)c1cccc([N+](=O)[O-])c1` the figure was under 5.70; with `O=C(NC1=Nc2ccccc2C2=NCCN12)c1cnccn1`, 5.70 to 6.30.
With `O=C(NC1=Nc2ccc(F)cc2C2=NCCN12)c1cccs1` the figure was 5.70 to 6.30; with `O=C(O)CCc1ccc2c(n1)N=C(/C=C(\O)c1cccnc1)N1CCN=C21`, 6.30 to 7.00; with `COc1cc(OC)c2c(c1)C1=NCCN1C(/C=C(\O)c1cccnc1)=N2`, at least 7.00.
With `CC(=O)Nc1ccc(/C(O)=C/C2=Nc3c(C)cccc3C3=NCCN23)cn1` the figure was at least 7.00; with `Cc1cc(Br)c2c(c1)C1=NCCN1C(/C=C(\O)c1ccc3[nH]cnc3c1)=N2`, 6.30 to 7.00; with `CN(C)C=Nc1cncc(C(=O)NC2=Nc3ccccc3C3=NCCN23)c1`, 6.30 to 7.00.
The compound `O=C(NC1=Nc2ccccc2C2=NCCN12)c1ccsc1` showed a pIC50 of 6.30 to 7.00.
With `O=C(NC1=Nc2ccccc2C2=NCCN12)c1cnc2[nH]cnc2c1` the figure was at least 7.00; with `O/C(=C\C1=Nc2ccccc2C2=NCCN12)c1cccnc1`, 6.30 to 7.00.
`Cc1ccc(C(=O)NC2=Nc3ccccc3C3=NCCN23)cn1` gave a negative logarithm of the IC50 (pIC50) of at least 7.00.
`O=C(NC1=Nc2cc(OCCO)ccc2C2=NCCN12)c1cccnc1` gave a pIC50 of 6.30 to 7.00.
With `O/C(=C\C1=Nc2cc(-c3ccccc3)ccc2C2=NCCN12)c1cccnc1` the figure was 6.30 to 7.00; with `Cc1ccc2c(c1)C1=NCCN1C(/C=C(\O)c1cccnc1)=N2`, 6.30 to 7.00; with `COc1ccc2c(c1OC)N=C(NC(=O)c1cnc3[nH]cnc3c1)N1CCN=C21`, at least 7.00.
With `COc1cccc2c1N=C(NC(=O)c1cc3cccnc3nc1C)N1CCN=C21` the figure was at least 7.00; with `COc1cc(C(=O)NC2=Nc3ccccc3C3=NCCN23)cc(OC)c1C`, under 5.70; with `O=C(NC1=Nc2ccccc2C2=NCCN12)c1ccc(Cl)nc1`, 5.70 to 6.30.
With `COc1cccc2c1N=C(NC(=O)c1ccc3[nH]cnc3c1)N1CCN=C21` the figure was at least 7.00; with `COc1ccc2c(c1)N=C(NC(=O)c1cccnc1)N1CCN=C21`, 6.30 to 7.00.
In turn, `COc1c(OCc2nn[nH]n2)ccc2c1N=C(/C=C(\O)c1cccnc1)N1CCN=C21` showed a pIC50 of at least 7.00.
With `COc1ccc2c(c1)C1=NCCN1C(/C=C(\O)c1cccnc1)=N2` the figure was 6.30 to 7.00; with `Cn1cccc1C(=O)NC1=Nc2ccccc2C2=NCCN12`, 5.70 to 6.30; with `Cc1nc2ccccn2c1C(=O)NC1=Nc2ccccc2C2=NCCN12`, 6.30 to 7.00.
With `Nc1ccc(C(=O)NC2=Nc3ccccc3C3=NCCN23)cn1` the figure was at least 7.00; with `Cc1cccc2c1N=C(/C=C(\O)c1cccnc1)N1CCN=C21`, 6.30 to 7.00.
With `O=C(NC1=Nc2cc(Cl)ccc2C2=NCCN12)c1ccc2[nH]cnc2c1` the figure was at least 7.00; with `O=C(NC1=Nc2ccccc2C2=NCCN12)c1sccc1Cl`, 6.30 to 7.00.
As to `O/C(=C\C1=Nc2c(OCC3CC3)cccc2C2=NCCN12)c1cccnc1`, the pIC50 is 6.30 to 7.00.
With `COc1cccc2c1N=C(NC(=O)c1cc3cccnc3nc1C(F)(F)F)N1CCN=C21` the figure was at least 7.00; with `CN(C=O)c1ccc(C(=O)NC2=Nc3ccccc3C3=NCCN23)cc1`, under 5.70; with `COc1cc2c(cc1OC)C1=NCCN1C(/C=C(\O)c1ccc3[nH]cnc3c1)=N2`, at least 7.00.
With `O=C(NC1=Nc2ccccc2C2=NCCN12)c1c[nH]cn1` the figure was 6.30 to 7.00; with `COc1cc2c(c(OC)c1C)N=C(/C=C(\O)c1ccc3[nH]cnc3c1)N1CCN=C21`, 6.30 to 7.00; with `O=C(NC1=Nc2ccccc2C2=NCCN12)c1ccco1`, 5.70 to 6.30.
With `O/C(=C\C1=Nc2ccccc2C2=NCCN12)c1ccco1` the figure was 6.30 to 7.00; with `O/C(=C\C1=Nc2cc(Cl)ccc2C2=NCCN12)c1cccnc1`, 6.30 to 7.00.
Compound `COc1cc2c(cc1OC)C1=NCCN1C(/C=C(\O)c1cccs1)=N2` gave a pIC50 of 6.30 to 7.00.
With `Cc1ccc(C(=O)NC2=Nc3cc(N4CCOCC4)ccc3C3=NCCN23)cn1` the figure was at least 7.00; with `O/C(=C\C1=Nc2cc(N3CCN(Cc4ccccc4)CC3)ccc2C2=NCCN12)c1cccnc1`, 6.30 to 7.00.
`O=C(NC1=Nc2cc(N3CCOCC3)ccc2C2=NCCN12)c1cncc(O)c1`: the pIC50 is at least 7.00.
With `O=C(NC1=Nc2ccccc2C2=NCCN12)c1ccc(Cl)cc1` the figure was under 5.70; with `Cc1ccc(/C(O)=C/C2=Nc3ccccc3C3=NCCN23)cn1`, 6.30 to 7.00; with `CC(=O)Nc1ccc(/C(O)=C/C2=Nc3cc(CN4CCOCC4)ccc3C3=NCCN23)cn1`, 6.30 to 7.00.
With `Cc1ccc2c(c1OCCN1CCOCC1)N=C(/C=C(\O)c1cccnc1)N1CCN=C21` the figure was 6.30 to 7.00.
With `Cc1ccc2c(c1)N=C(NC(=O)c1cccnc1)N1CCN=C21` the figure was at least 7.00; with `O/C(=C\C1=Nc2ccccc2C2=NCCN12)c1ccccn1`, 5.70 to 6.30.
`COc1cc2c(c(OC)c1C)N=C(/C=C(\O)c1ccc(NC(C)=O)nc1)N1CCN=C21` had a pIC50 of at least 7.00.
With `CN(C)c1cccc(C(=O)NC2=Nc3ccccc3C3=NCCN23)c1` the figure was under 5.70.
With `O=C(NC1=Nc2ccccc2C2=NCCN12)c1ccc([N+](=O)[O-])s1` the figure was under 5.70; with `O/C(=C\C1=Nc2ccccc2C2=NCCN12)c1cccs1`, at least 7.00.
